Measured values as given in US12077503B2, “Substituted cyclic amides and their use as herbicides” (FMC CORPORATION, priority 2015, dated 2024).

Columns and labels:
Test in all cases: Test G Post-Emergence Protocol
Type in all cases: in vivo
[1] = tested on: barnyardgrass (Echinochloa crus-galli); settings: Echinochloa crus-galli, post-emergence, 312 h; for pest or weed control at 15.625 g/ha: 15.625 g ai/ha, evaluated after 13 days (100=total damage to plant; 0=no damage to plant), read-out: Barnyardgrass damage rating; for pest or weed control at 62.5 g/ha: 62.5 g ai/ha, read-out: Barnyardgrass damage rating (100=total damage to plant; 0=no damage to plant); for pest or weed control at 62.5 g/ha / pest or weed control at 250 g/ha: evaluated after 13 days; for pest or weed control at 250 g/ha: 250 g ai/ha, read-out: damage to plant, Barnyardgrass (100=total damage to plant; 0=no damage to plant)
Procedure, shortened: (§1)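 Post-emergence herbicidal damage, scored visually 0–100 at 13 days. Application at 15.625, 62.5 or 250 g/ha onto 8-day-old plants grown under glasshouse control.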

corn (Zea mays) = settings: Zea mays, post-emergence, 312 h; for plant injury at 15.625 g/ha: 15.625 g ai/ha, evaluated after 13 days (100=total damage to plant; 0=no damage to plant), read-out: Corn damage rating; for plant injury at 62.5 g/ha: 62.5 g ai/ha, read-out: Corn damage rating (100=total damage to plant; 0=no damage to plant); for plant injury at 62.5 g/ha / plant injury at 250 g/ha: evaluated after 13 days; for plant injury at 250 g/ha: 250 g ai/ha, read-out: damage to plant, Corn (100=total damage to plant; 0=no damage to plant)
Procedure, shortened: as §1

[2] = tested on: giant foxtail (Setaria faberi); settings: Setaria faberi, post-emergence, 312 h; for pest or weed control at 15.625 g/ha: 15.625 g ai/ha, evaluated after 13 days (100=total damage to plant; 0=no damage to plant), read-out: Foxtail, Giant damage rating; for pest or weed control at 62.5 g/ha: 62.5 g ai/ha, read-out: Foxtail, Giant damage rating (100=total damage to plant; 0=no damage to plant); for pest or weed control at 62.5 g/ha / pest or weed control at 250 g/ha: evaluated after 13 days; for pest or weed control at 250 g/ha: 250 g ai/ha, read-out: damage to plant, Foxtail, Giant (100=total damage to plant; 0=no damage to plant)
Procedure, shortened: as §1

[3] = tested on: ivy-leaved morning glory (Ipomoea hederacea); settings: Ipomoea, post-emergence, 312 h; for pest or weed control at 15.625 g/ha: 15.625 g ai/ha, evaluated after 13 days (100=total damage to plant; 0=no damage to plant), read-out: Morningglory, Ivy-leaved damage rating; for pest or weed control at 62.5 g/ha: 62.5 g ai/ha, read-out: Morningglory, Ivy-leaved damage rating (100=total damage to plant; 0=no damage to plant); for pest or weed control at 62.5 g/ha / pest or weed control at 250 g/ha: evaluated after 13 days; for pest or weed control at 250 g/ha: 250 g ai/ha, read-out: damage to plant, Morningglory, Ivy-leaved (100=total damage to plant; 0=no damage to plant)
Procedure, shortened: as §1

[4] = tested on: redroot pigweed (Amaranthus retroflexus); settings: Amaranthus retroflexus, post-emergence, 312 h; for pest or weed control at 15.625 g/ha: 15.625 g ai/ha, evaluated after 13 days (100=total damage to plant; 0=no damage to plant), read-out: Pigweed, Redroot damage rating; for pest or weed control at 62.5 g/ha: 62.5 g ai/ha, read-out: Pigweed, Redroot damage rating (100=total damage to plant; 0=no damage to plant); for pest or weed control at 62.5 g/ha / pest or weed control at 250 g/ha: evaluated after 13 days; for pest or weed control at 250 g/ha: 250 g ai/ha, read-out: damage to plant, Pigweed, Redroot (100=total damage to plant; 0=no damage to plant)
Procedure, shortened: as §1

[5] = tested on: velvetleaf (Abutilon theophrasti); settings: Abutilon theophrasti, post-emergence, 312 h; for pest or weed control at 15.625 g/ha: 15.625 g ai/ha, evaluated after 13 days (100=total damage to plant; 0=no damage to plant), read-out: Velvetleaf damage rating; for pest or weed control at 62.5 g/ha: 62.5 g ai/ha, read-out: Velvetleaf damage rating (100=total damage to plant; 0=no damage to plant); for pest or weed control at 62.5 g/ha / pest or weed control at 250 g/ha: evaluated after 13 days; for pest or weed control at 250 g/ha: 250 g ai/ha, read-out: damage to plant, Velvetleaf (100=total damage to plant; 0=no damage to plant)
Procedure, shortened: as §1

Row | SMILES | pest or weed control at 15.625 g/ha [1] [%] | pest or weed control at 62.5 g/ha [1] [%] | pest or weed control at 250 g/ha [1] [%] | plant injury at 15.625 g/ha (corn (Zea mays)) [%] | plant injury at 62.5 g/ha (corn (Zea mays)) [%] | plant injury at 250 g/ha (corn (Zea mays)) [%] | pest or weed control at 15.625 g/ha [2] [%] | pest or weed control at 62.5 g/ha [2] [%] | pest or weed control at 250 g/ha [2] [%] | pest or weed control at 15.625 g/ha [3] [%] | pest or weed control at 62.5 g/ha [3] [%] | pest or weed control at 250 g/ha [3] [%] | pest or weed control at 15.625 g/ha [4] [%] | pest or weed control at 62.5 g/ha [4] [%] | pest or weed control at 250 g/ha [4] [%] | pest or weed control at 15.625 g/ha [5] [%] | pest or weed control at 62.5 g/ha [5] [%] | pest or weed control at 250 g/ha [5] [%]
1 | CN1C[C@@H](c2ccc(C(F)(F)F)cc2)[C@H](C(=O)Nc2nc[nH]n2)C1=O (racemic) [Compound 1534] | 0 | 0 | 0 | 0 | 0 | 0 | 0 | 0 | 0 | 0 | 0 | 10 | 0 | 0 | 0 | 0 | 0 | 10
2 | CN1C[C@H](c2ccc3occc3c2)[C@@H](C(=O)Nc2cccc(F)c2F)C1=O (racemic) [Compound 1500] | 10 | 60 | 60 | 10 | 10 | 60 | 40 | 60 | 60 | 0 | 0 | 10 | 0 | 0 | 0 | 0 | 0 | 20
3 | CN1C[C@@H](c2ccc(C(F)(F)F)cc2)[C@H](C(=O)Nc2ccc(C(F)(F)F)nc2Cl)C1=O (racemic) [Compound 1542] | 0 | 0 | 0 | 0 | 0 | 0 | 0 | 0 | 0 | 0 | 0 | 0 | 0 | 0 | 0 | 0 | 0 | 0
4 | Cc1c(NC(=O)[C@@H]2C(=O)N(C)C[C@H]2c2ccc(C(F)(F)F)cc2)ccc(F)c1F (racemic) [Compound 1502] | 20 | 60 | 70 | 0 | 30 | 60 | 60 | 80 | 80 | 0 | 0 | 20 | 20 | 30 | 80 | 0 | 10 | 40
5 | CN1C[C@@H](c2ccc(C(F)(F)F)cc2)[C@H](C(=O)Nc2cc[nH]n2)C1=O (racemic) [Compound 1533] | 0 | 0 | 0 | 0 | 0 | 0 | 0 | 0 | 0 | 0 | 0 | 0 | 0 | 0 | 0 | 0 | 0 | 0
6 | CN1C[C@@H](c2ccc(C(F)(F)F)cc2)[C@H](C(=O)Nc2cc(C(F)(F)F)nn2C)C1=O (racemic) [Compound 1510] | 0 | 0 | 0 | 0 | 0 | 10 | 0 | 0 | 0 | 0 | 0 | 0 | 0 | 0 | 20 | 0 | 0 | 0
7 | CN1C[C@H](c2ccc3c(c2)CCO3)[C@@H](C(=O)Nc2cccc(F)c2F)C1=O (racemic) [Compound 1499] | 50 | 60 | 60 | 10 | 0 | 80 | 60 | 60 | 70 | 20 | 0 | 40 | 0 | 0 | 0 | 0 | 0 | 20
8 | Cc1ccncc1NC(=O)[C@@H]1C(=O)N(C)C[C@H]1c1ccc(C(F)(F)F)cc1 (racemic) [Compound 1505] | 0 | 0 | 20 | 0 | 10 | 10 | 0 | 0 | 30 | 0 | 0 | 10 | 0 | 0 | 0 | 0 | 0 | 0
9 | CN1C[C@@H](c2ccc(C(F)(F)F)cc2)[C@H](C(=O)Nc2cnccc2Cl)C1=O (racemic) [Compound 1541] | 0 | 0 | 20 | 0 | 0 | 10 | 0 | 0 | 50 | 0 | 0 | 10 | 0 | 0 | 20 | 0 | 0 | 0
